Series [1] concerns Bloodstream form T. brucei (strain 427). Description: Trypanocidal activity against bloodstream form T. brucei (Alamar Blue growth inhibition). The series is classed as cell-based, Trypanosoma brucei. The following applies: 48 hours + overnight Alamar Blue; for IC50: concentration that inhibits growth by 50%; for IC90: concentration that inhibits growth by 90%. On the procedure:
Bloodstream form T. brucei (strain 427) were cultured at 37 °C in modified Iscove's medium. Trypanocidal activity was assessed by growing parasites in microtiter plates in the presence of various drug concentrations. […] The plates were incubated for 48 hours at 37 °C and 20 μL Alamar Blue was then added to each well. After an additional overnight incubation, the fluorescence was determined. Inhibition of growth was calculated by comparison with control values and IC50 and IC90 values were determined in triplicate using linear regression analysis.

For a further series, the system named is L6 cells. Briefly: Cytotoxic activity against rat skeletal myoblast L6 cells (Alamar Blue). The series is classed as cell-based. The following applies: ratio of IC50 values obtained with L6 cells and T. brucei. As for the experimental part:
(§1) Cytotoxicity against mammalian cells was assessed using microtitre plates. Briefly, L6 cells (a rat skeletal muscle line) were seeded at 1 × 10^4 mL^–1 in 200 μL of growth medium containing 7 different compound concentrations in a range previously established to encompass both the IC50 and IC90 values. The plates were incubated for 6 days at 37 °C and 20 μL Alamar Blue (Biosource UK Ltd) was then added to each well. After an additional 8 hours incubation, the fluorescence was determined using a FLUOstar Omega fluorescent plate reader (BMG Labtech). Inhibition of growth was calculated by comparison with control values and IC50 and IC90 values were determined in triplicate using linear regression analysis.
A general note: Alamar Blue is a resazurin reagent that responds to reducing activity.

Test in series [2]: as above
Conditions: rat, L6 cells (rat skeletal muscle line); cytotoxicity, 6 days incubation + 8 hours Alamar Blue. The series is classed as cell-based. As for the experimental part: as §1

Where a name gives a salt, the structure may show the parent alone.

For the compound `O=C(NCCc1csc(-c2ccc(F)c(C34CC5CC(CC(C5)C3)C4)c2)n1)N1CCCC1` (as salt: fumarate) [Compound 1i, N-(2-(2-(3-(1-Tricyclo[3.3.1.1^3,7]decyl)-4-fluorophenyl)thiazol-4-yl)ethyl)pyrrolidin-1-yl-carboxamide], the melting point was 301 °C (dec.).

Consider `O=C(NCCc1csc(-c2ccc(F)c(C34CC5CC(CC(C5)C3)C4)c2)n1)c1ccc(F)cc1` (as salt: fumarate) [Compound 1g, N-{2-[2-(3-(1-Tricyclo[3.3.1.1^3,7]decyl)-4-fluorophenyl)thiazol-4-yl]ethyl}-4-fluorobenzamide], for which the melting point lay in the range of 226 to 227 °C.

Compound `CN(C)CCc1csc(-c2ccc(F)c(C34CC5CC(CC(C5)C3)C4)c2)n1` (as salt: hydrochloride) [Compound 1c, 2-{2-[3-(1-Tricyclo[3.3.1.1^3,7]decyl)-4-fluorophenyl]thiazol-4-yl}-N,N-dimethylethyl-1-amine] gave a melting point of 280 to 282 °C.

`N#CCc1csc(-c2ccc(C34CC5CC(CC(C5)C3)C4)cc2)n1` [Compound 2e, 2-{2-[4-(1-Tricyclo[3.3.1.1^3,7]decyl)phenyl]thiazol-4-yl}acetonitrile] displayed a melting point of 159 to 160 °C. For the same compound, in series [1] (Trypanosoma brucei), the IC50 was greater than 20 µM.

Take `[N-]=[N+]=NCCc1csc(-c2ccc(C34CC5CC(CC(C5)C3)C4)cc2)n1` [Compound 2h, 2-[4-(1-Tricyclo[3.3.1.1^3,7]decyl)phenyl]-4-(2-azidoethyl)thiazole]: the IC50 in series [1] (Trypanosoma brucei) was greater than 20 µM.

`NCCc1csc(-c2ccc(F)c(C34CC5CC(CC(C5)C3)C4)c2)n1` (as salt: hydrochloride) [Compound 1a, 2-{2-[3-(1-Tricyclo[3.3.1.1^3,7]decyl)-4-fluorophenyl]thiazol-4-yl}ethan-1-amine]: the melting point lay in the range of 246 to 248 °C.

Turning to `O=C(NCCc1csc(-c2ccc(F)c(C34CC5CC(CC(C5)C3)C4)c2)n1)c1ccc(F)cc1` [Compound 1g, N-{2-[2-(3-(1-Tricyclo[3.3.1.1^3,7]decyl)-4-fluorophenyl)thiazol-4-yl]ethyl}-4-fluorobenzamide], the IC50 in series [1] (Trypanosoma brucei) was greater than 20 µM.

`CNCCc1csc(-c2ccc(F)c(C34CC5CC(CC(C5)C3)C4)c2)n1` (as salt: hydrochloride) [Compound 1b, 2-{2-[3-(1-Tricyclo[3.3.1.1^3,7]decyl)-4-fluorophenyl]thiazol-4-yl}-N-methylethan-1-amine] came in with a melting point of 221 to 223 °C.

Take `CN(C)CCc1csc(-c2ccc(F)c(C34CC5CC(CC(C5)C3)C4)c2)n1` [Compound 1c, 2-{2-[3-(1-Tricyclo[3.3.1.1^3,7]decyl)-4-fluorophenyl]thiazol-4-yl}-N,N-dimethylethyl-1-amine]: the IC50 in series [1] (Trypanosoma brucei) was determined as 0.79 ± 0.02 µM; in series [2] it was 1.53 ± 0.09 µM. Moreover, the IC90 in series [1] (Trypanosoma brucei) was found to be 1.03 ± 0.01 µM. For the same compound, the “S.I. (selectivity index)” value with L6 cells was found to be 1.9.

Consider `NCCc1csc(-c2ccc(C34CC5CC(CC(C5)C3)C4)cc2)n1` (as salt: hydrochloride) [Compound 2a, 2-{2-[4-(1-Tricyclo[3.3.1.1^3,7]decyl)phenyl]thiazol-4-yl}ethan-1-amine], for which the melting point was 225 °C (dec.).

`O=C(NCCc1nc(-c2ccccc2)cs1)C12CC3CC(CC(C3)C1)C2` [Compound 4c, N-[2-(4-Phenylthiazol-2-yl)ethyl](1-tricyclo[3.3.1.1^3,7]decane)carboxamide] came in with a melting point of 107 to 108 °C. Besides, in series [1] (Trypanosoma brucei), the IC50 stood at 9.82 ± 0.22 µM and the IC90 is 13.1 ± 0.2 µM.

Turning to `CCCC(=O)NCCc1csc(-c2ccc(F)c(C34CC5CC(CC(C5)C3)C4)c2)n1` [Compound 1e, N-{2-[2-(3-(1-Tricyclo[3.3.1.1^3,7]decyl)-4-fluorophenyl)thiazol-4-yl]ethyl}butylamide], in series [1] (Trypanosoma brucei), the IC50 is greater than 25 µM.

With `O=C(NCCc1csc(-c2ccccc2)n1)C12CC3CC(CC(C3)C1)C2` [Compound 4a, N-(2-(2-Phenylthiazol-4-yl)ethyl)(1-tricyclo[3.3.1.1^3,7]decane)carboxamide], the melting point lay within 135 to 136 °C. Further, in series [1] (Trypanosoma brucei), the concentration for half-maximal inhibition (IC50) is 12.2 ± 0.8 µM and the IC90 amounted to 18.7 ± 0.4 µM.

With `CN(C)CCc1csc(-c2ccc(C34CC5CC(CC(C5)C3)C4)cc2)n1` (as salt: fumarate) [Compound 2c, 2-{2-[4-(1-Tricyclo[3.3.1.1^3,7]decyl)phenyl]thiazol-4-yl}-N,N-dimethylethan-1-amine], the melting point is 302 °C (dec.).

In the case of `CC(=O)NCCc1csc(-c2ccc(C34CC5CC(CC(C5)C3)C4)cc2)n1` (as salt: fumarate) [Compound 2d, N-{2-[2-(4-(1-Tricyclo[3.3.1.1^3,7]decyl)phenyl)thiazol-4-yl]ethyl}acetamide], the melting point lay within 164 to 166 °C.

In turn, `CNCCc1csc(-c2ccc(C34CC5CC(CC(C5)C3)C4)cc2)n1` (as salt: fumarate) [Compound 2b, 2-{2-[4-(1-Tricyclo[3.3.1.1^3,7]decyl)phenyl]thiazol-4-yl}-N-methylethan-1-amine] yielded a melting point of 147 to 149 °C.

Consider `Cc1ccoc1C(=O)NCCc1csc(-c2ccc(F)c(C34CC5CC(CC(C5)C3)C4)c2)n1` [Compound 1h, N-{2-[2-(3-(1-Tricyclo[3.3.1.1^3,7]decyl)-4-fluorophenyl)thiazol-4-yl]ethyl}-3-methylfuran-2-ylcarboxamide], for which the IC50 in series [1] (Trypanosoma brucei) is greater than 20 µM.

For `CCCC(=O)NCCc1csc(-c2ccc(F)c(C34CC5CC(CC(C5)C3)C4)c2)n1` (as salt: fumarate) [Compound 1e, N-{2-[2-(3-(1-Tricyclo[3.3.1.1^3,7]decyl)-4-fluorophenyl)thiazol-4-yl]ethyl}butylamide], the melting point fell in the range of 291 to 293 °C.

Turning to `O=C(NCCc1csc(-c2ccc(F)c(C34CC5CC(CC(C5)C3)C4)c2)n1)N1CCCC1` [Compound 1i, N-(2-(2-(3-(1-Tricyclo[3.3.1.1^3,7]decyl)-4-fluorophenyl)thiazol-4-yl)ethyl)pyrrolidin-1-yl-carboxamide], the IC50 in series [1] (Trypanosoma brucei) was greater than 20 µM.

Regarding `OCCc1csc(-c2ccc(C34CC5CC(CC(C5)C3)C4)cc2)n1` [Compound 2g, 2-{2-[4-(1-Tricyclo[3.3.1.1^3,7]decyl)phenyl]thiazol-4-yl}ethan-1-ol], the melting point is 93 to 94 °C. Further, in series [1] (Trypanosoma brucei), the IC50 was roughly 10 µM.

Consider “1-{2-[4-(1-Tricyclo[3.3.1.1^3,7]decyl)phenyl]thiazol-4-yl}guanidine [Compound 3e]”, for which, in series [1], the IC50 is roughly 10 µM.

Regarding `CC(=O)NCCc1csc(-c2ccc(C34CC5CC(CC(C5)C3)C4)cc2)n1` [Compound 2d, N-{2-[2-(4-(1-Tricyclo[3.3.1.1^3,7]decyl)phenyl)thiazol-4-yl]ethyl}acetamide], the 50% inhibitory concentration (IC50) in series [1] (Trypanosoma brucei) is greater than 20 µM.

Take `Br.NCc1nc(-c2ccc(C34CC5CC(CC(C5)C3)C4)cc2)cs1` [Compound 3b, 2-{4-[4-(1-Tricyclo[3.3.1.1^3,7]decyl)phenyl]thiazol-2-yl}methanamine difumarate]: the melting point was 172 °C (dec.). In addition, in series [1] (Trypanosoma brucei), the IC50 amounted to 9.76 ± 0.77 µM and the IC90 is 12.8 ± 0.2 µM. For the same compound, in series [2], the IC50 came out at 12.6 ± 0.9 µM.

`CC(=O)NCCc1csc(-c2ccc(F)c(C34CC5CC(CC(C5)C3)C4)c2)n1` [Compound 1d, N-{2-[2-(3-(1-Tricyclo[3.3.1.1^3,7]decyl)-4-fluorophenyl]thiazol-4-yl]ethyl}acetamide]: in series [1] (Trypanosoma brucei), the IC50 was 15.3 ± 0.2 µM and the concentration for an effect of 90% (IC90) is 18.1 ± 0.2 µM.

`CC(=O)NCCc1csc(-c2ccc(F)c(C34CC5CC(CC(C5)C3)C4)c2)n1` (as salt: fumarate) [Compound 1d, N-{2-[2-(3-(1-Tricyclo[3.3.1.1^3,7]decyl)-4-fluorophenyl]thiazol-4-yl]ethyl}acetamide] gave a melting point of 143 to 145 °C.

Turning to `CC1(C)[C@@H]2CC[C@]1(CS(=O)(=O)NCCc1csc(-c3ccccc3)n1)C(=O)C2` [Compound 4b, 1-((1R,4R)-7,7-Dimethyl-2-oxobicyclo[2.2.1]hept-1-yl)-N-(2-(2-phenylthiazol-4-yl)ethyl)methanesulfonamide], in series [1] (Trypanosoma brucei), the IC50 amounted to 20.6 ± 0.7 µM and the IC90 was determined as 31.1 ± 0.3 µM.

As to `O=C(NCCc1csc(-c2ccc(F)c(C34CC5CC(CC(C5)C3)C4)c2)n1)c1ccccc1` (as salt: fumarate) [Compound 1f, N-{2-[2-(3-(1-Tricyclo[3.3.1.1^3,7]decyl)-4-fluorophenyl)thiazol-4-yl]ethyl}benzamide], the melting point is 305 °C (dec.).

For the compound `O=C(NCCc1csc(-c2ccc(F)c(C34CC5CC(CC(C5)C3)C4)c2)n1)c1ccccc1` [Compound 1f, N-{2-[2-(3-(1-Tricyclo[3.3.1.1^3,7]decyl)-4-fluorophenyl)thiazol-4-yl]ethyl}benzamide], the IC50 in series [1] (Trypanosoma brucei) is greater than 20 µM.

Compound `N#CSCc1csc(-c2ccc(C34CC5CC(CC(C5)C3)C4)cc2)n1` [Compound 2f, 2-[4-(1-Tricyclo[3.3.1.1^3,7]decyl)phenyl]-4-(thiocyanatemethyl)thiazole] returned a melting point of 169 to 170 °C. Besides, the IC50 in series [1] (Trypanosoma brucei) was roughly 10 µM.

On to `CN(C)CCc1csc(-c2ccc(C34CC5CC(CC(C5)C3)C4)cc2)n1` [Compound 2c, 2-{2-[4-(1-Tricyclo[3.3.1.1^3,7]decyl)phenyl]thiazol-4-yl}-N,N-dimethylethan-1-amine], for which, in series [1] (Trypanosoma brucei), the half-inhibitory concentration (IC50) came to 1.27 ± 0.07 µM and the IC90 amounted to 1.6 ± 0.22 µM.

One may read the melting point as the temperature of the solid-liquid transition. As a reminder, the IC50 is the point on the concentration scale where inhibition reaches its midpoint. For orientation: IC90 means the concentration at which the effect reaches the 90% level.

(Values after paper PMC7522794, “Synthesis and evaluation of novel 2,4-disubstituted arylthiazoles against T. brucei” (RSC Medicinal Chemistry, 2019).)
